≈ marks a conversion by molar mass, not a printed value. Like-named read-outs stand apart in the source and are kept apart here. Square brackets hold non-standard residues; d marks the D form. Peptide text beside a SMILES is read from it. * marks the point of attachment. Ala(thiazol-2-yl) = N[C@@H](Cc1nccs1)C(=O)O; NH(1-CH2NMe2-cBu) = CN(C)CC1(N*)CCC1; dGly(nOct) = CCCCCCCC[C@@H](N)C(=O)O; Gly(octyl) = CCCCCCCC[C@H](N)C(=O)O; Oxazole4CO(2-Me) = Cc1nc(C(=O)*)co1; d(hCha) = N[C@H](CCC1CCCCC1)C(=O)O; Benzoyl(4-F) = O=C(c1ccc(F)cc1)*; hCha = N[C@@H](CCC1CCCCC1)C(=O)O; Aoc(2) = CCCCCC[C@H](N)C(=O)O; NHCH2CH2NHMe = CNCCN*; Aib = CC(C)(N)C(=O)O; X1 = COCCN(CCN*)CCOC; βAla = NCCC(=O)O; tBu = CC(C)(C)*
Legend:
[1] = test system: intracellular Leishmania donovani MHOM-ET-67/L82 amastigotes; assay: In vitro antiprotozoal assay, intracellular amastigotes; type: cell-based; conditions: intracellular amastigotes; read-out: L.don.InMac IC50
Protocol: (§1) The testing of the inventive compounds against Leishmania donovani (strain MHOM/ET/67/L82) was performed in 96 well plates at concentrations in serial dilutions. Tests were done in triplicate.

[2] = Cytotoxicity assay (Alamar Blue) on L6-cells; type: cell-based, rat
Protocol: Tests were done in triplicate.
The plates were incubated for additional 2 h.

[3] = test system: axenic Leishmania donovani MHOM-ET-67/L82 amastigotes; assay: In vitro antiprotozoal assay, axenic amastigotes; type: cell-based
Protocol: as §1

[4] = test system: Staphylococcus aureus ATCC BAA-1556, USA300 MRSA; assay: microbe, parasite or virus in culture; type: cell-based; conditions: ATCC BAA-1556
Protocol: Pre-formulated compound solution was diluted in 100% DMSO to prepare a 1.6 mg/mL working stock solution. […] The concentration range was 0.032 to 32 μg/mL.

[5] = test system: Staphylococcus aureus ATCC 43300, MRSA; type: cell-based; conditions: ATCC 43300, 18 h
Protocol: The antibacterial activity of inventive compounds was evaluated in duplicate in a further Minimum Inhibitory Concentration (MIC) assay.
Bacteria were cultured in Cation-adjusted Mueller Hinton broth (CAMHB) at 37° C. overnight. A sample of each culture was then diluted 40-fold in fresh broth and incubated at 37° C. for 1.5-3 h. The resultant mid-log phase cultures were diluted (CFU/mL measured by OD600), then added to each well of the compound containing plates, giving a cell density of 5×10^5 CFU/mL and a total volume of 50 μL. All the plates were covered and incubated at 37° C. for 18 h without shaking.
Samples were prepared in DMSO and serially diluted 2 fold 8 times. Each sample concentration was prepared in 384-well plates, non-binding surface plate (NBS; Corning 3640) for the bacterial strain ATCC 43300, MRSA. The final DMSO concentration was at a maximum of 0.5%.
Inhibition of bacterial growth was determined measuring absorbance at 600 nm (OD600), using a Tecan M1000 Pro monochromator plate reader. The percentage of growth inhibition was calculated for each well, using the negative control (media only) and positive control (bacteria without inhibitors) on the same plate as references. […] Vancomycin was used as positive bacterial inhibitor standards.

[6] = axenic amastigotes, read-out: L.don.ax. IC50

Row | Compound | IC50 [1] | IC50 at 68 h ([2]; rat) | IC50 [3, 6] | MIC [4] | IC50 at 68 h ([2]; rat myoblast L6 cells, read-out: Cytotox L6 IC50) | IC50 [3] | MIC [5]
1 | Cc1nc(C(=O)N2CCC[C@H]2C(=O)N[C@@H](COC(C)(C)C)C(=O)N[C@@H](CC(C)C)C(=O)NC(C)(C)C(=O)N[C@@H](CC(C)C)C(=O)N[C@@H](CC(C)C)C(=O)NC(C)(C)C(=O)NC(C)(C)C(=O)NCCC(=O)NC2(CN(C)C)CCC2)co1 [Compound 6780, (2S)-2-[(2S)-2-{2-[(2S)-2-[(2S)-3-(tert-butoxy)-2-{[(2S)-1-(2-methyl-1,3-oxazole-4-carbonyl)pyrrolidin-2-yl]formamido}propanamido]-4-methylpentanamido]-2-methylpropanamido}-4-methylpentanamido]-N-{1-[(1-{[2-({1-[(dimethylamino)methyl]cyclobutyl}carbamoyl)ethyl]carbamoyl}-1-methylethyl)carbamoyl]-1-methylethyl}-4-methylpentanamide] ({Oxazole4CO(2-Me)}-PS(tBu)L[Aib]LL[Aib][Aib][βAla]-{NH(1-CH2NMe2-cBu)}) | 997 nM | 8750 nM | 166 nM |  |  |  | 
2 | CCCCCCCC[C@@H](NC(=O)[C@@H]1CCCN1C(=O)c1coc(C)n1)C(=O)N[C@@H](CC(C)C)C(=O)NC(C)(C)C(=O)N[C@@H](CC(C)C)C(=O)N[C@@H](CC(C)C)C(=O)NC(C)(C)C(=O)NC(C)(C)C(=O)NCCC(=O)NC1(CN(C)C)CCC1 [Compound 6789, (2R)-N-[(1S)-1-[(1-{[(1S)-1-{[(1S)-1-({1-[(1-{[2-({1-[(dimethylamino)methyl]cyclobutyl}carbamoyl)ethyl]carbamoyl}-1-methylethyl)carbamoyl]-1-methylethyl}carbamoyl)-3-methylbutyl]carbamoyl}-3-methylbutyl]carbamoyl}-1-methylethyl)carbamoyl]-3-methylbutyl]-2-{[(2S)-1-(2-methyl-1,3-oxazole-4-carbonyl)pyrrolidin-2-yl]formamido}decanamide] ({Oxazole4CO(2-Me)}-P[dGly(nOct)]L[Aib]LL[Aib][Aib][βAla]-{NH(1-CH2NMe2-cBu)}) | 65 nM | 4280 nM | 3.4 nM | 16 µg/mL (≈ 13.7 µM) |  |  | 
3 | COCCN(CCNC(=O)CCNC(=O)C(C)(C)NC(=O)C(C)(C)NC(=O)[C@H](CC(C)C)NC(=O)[C@H](CC(C)C)NC(=O)C(C)(C)NC(=O)[C@H](CC(C)C)NC(=O)[C@H](CCC1CCCCC1)NC(=O)[C@@H]1CCCN1C(=O)c1coc(C)n1)CCOC [Compound 6791, (2S)-N-(1-{[(1S)-1-{[(1S)-1-({1-[(1-{[2-({2-[bis(2-methoxyethyl)amino]ethyl}carbamoyl)ethyl]carbamoyl}-1-methylethyl)carbamoyl]-1-methylethyl}carbamoyl)-3-methylbutyl]carbamoyl}-3-methylbutyl]carbamoyl}-1-methylethyl)-2-[(2S)-4-cyclohexyl-2-{[(2S)-1-(2-methyl-1,3-oxazole-4-carbonyl)pyrrolidin-2-yl]formamido}butanamido]-4-methylpentanamide] ({Oxazole4CO(2-Me)}-P[hCha]L[Aib]LL[Aib][Aib][βAla]-X1) | 179 nM | 8230 nM | 2.1 nM | 32 µg/mL (≈ 26.3 µM) |  |  | 
4 | CCCCCC[C@H](NC(=O)[C@@H]1CCCN1C(=O)c1coc(C)n1)C(=O)N[C@@H](CC(C)C)C(=O)NC(C)(C)C(=O)N[C@@H](CC(C)C)C(=O)N[C@@H](CC(C)C)C(=O)NC(C)(C)C(=O)NC(C)(C)C(=O)NCCC(=O)NC1(CN(C)C)CCC1 [Compound 6894, (2S)—N-[(1S)-1-[(1-{[(1S)-1-{[(1S)-1-({1-[(1-{[2-({1-[(dimethylamino)methyl]cyclobutyl}carbamoyl)ethyl]carbamoyl}-1-methylethyl)carbamoyl]-1-methylethyl}carbamoyl)-3-methylbutyl]carbamoyl}-3-methylbutyl]carbamoyl}-1-methylethyl)carbamoyl]-3-methylbutyl]-2-{[(2S)-1-(2-methyl-1,3-oxazole-4-carbonyl)pyrrolidin-2-yl]formamido}octanamide] ({Oxazole4CO(2-Me)}-P[Aoc(2)]L[Aib]LL[Aib][Aib][βAla]-{NH(1-CH2NMe2-cBu)}) | 383 nM | 4740 nM | 20.6 nM |  |  |  | 
5 | COc1ccc(C[C@H](NC(=O)[C@@H]2CCCN2C(=O)c2coc(C)n2)C(=O)N[C@@H](CC(C)C)C(=O)NC(C)(C)C(=O)N[C@@H](CC(C)C)C(=O)N[C@@H](CC(C)C)C(=O)NC(C)(C)C(=O)NC(C)(C)C(=O)NCCC(=O)NC2(CN(C)C)CCC2)cc1 [Compound 6896, (2S)-N-(1-{[(1S)-1-{[(1S)-1-({1-[(1-{[2-({1-[(dimethylamino)methyl]cyclobutyl}carbamoyl)ethyl]carbamoyl}-1-methylethyl)carbamoyl]-1-methylethyl}carbamoyl)-3-methylbutyl]carbamoyl}-3-methylbutyl]carbamoyl}-1-methylethyl)-2-[(2S)-3-(4-methoxyphenyl)-2-{[(2S)-1-(2-methyl-1,3-oxazole-4-carbonyl)pyrrolidin-2-yl]formamido}propanamido]-4-methylpentanamide] ({Oxazole4CO(2-Me)}-PY(Me)L[Aib]LL[Aib][Aib][βAla]-{NH(1-CH2NMe2-cBu)}) | 1640 nM |  |  |  | 8490 nM | 236 nM | 
6 | Cc1nc(C(=O)N2CCC[C@@H]2C(=O)N[C@H](CCC2CCCCC2)C(=O)N[C@H](CC(C)C)C(=O)NC(C)(C)C(=O)N[C@H](CC(C)C)C(=O)N[C@H](CC(C)C)C(=O)NC(C)(C)C(=O)NC(C)(C)C(=O)NCCC(=O)NC2(CN(C)C)CCC2)co1 [Compound 7050, (2R)-2-[(2R)-4-cyclohexyl-2-{[(2R)-1-(2-methyl-1,3-oxazole-4-carbonyl)pyrrolidin-2-yl]formamido}butanamido]-N-(1-{[(1R)-1-{[(1R)-1-({1-[(1-{[2-({1-[(dimethylamino)methyl]cyclobutyl}carbamoyl)ethyl]carbamoyl}-1-methylethyl)carbamoyl]-1-methylethyl}carbamoyl)-3-methylbutyl]carbamoyl}-3-methylbutyl]carbamoyl}-1-methylethyl)-4-methylpentanamide] ({Oxazole4CO(2-Me)}-[dP][d(hCha)][dL][Aib][dL][dL][Aib][Aib][βAla]-{NH(1-CH2NMe2-cBu)}) | 43.7 nM | 4970 nM | 5.1 nM |  |  |  | 
7 | CCCCCCCC[C@H](NC(=O)[C@@H]1CCCN1C(=O)c1coc(C)n1)C(=O)N[C@@H](CC(C)C)C(=O)NC(C)(C)C(=O)N[C@@H](CC(C)C)C(=O)N[C@@H](CC(C)C)C(=O)NC(C)(C)C(=O)NC(C)(C)C(=O)NCCC(=O)NCCNC [Compound 7058, (2S)-2-{[(2S)-1-(2-methyl-1,3-oxazole-4-carbonyl)pyrrolidin-2-yl]formamido}-N-[(1S)-3-methyl-1-[(1-methyl-1-{[(1S)-3-methyl-1-{[(1S)-3-methyl-1-{[1-methyl-1-({1-methyl-1-[(2-{[2-(methylamino)ethyl]carbamoyl}ethyl)carbamoyl]ethyl}carbamoyl)ethyl]carbamoyl}butyl]carbamoyl}butyl]carbamoyl}ethyl)carbamoyl]butyl]decanamide] ({Oxazole4CO(2-Me)}-P[Gly(octyl)]L[Aib]LL[Aib][Aib][βAla]-NHCH2CH2NHMe) | 2620 nM | 5040 nM | 23.8 nM | 4 µg/mL (≈ 3.59 µM) |  |  | 
8 | CC(C)C[C@H](NC(=O)[C@H](Cc1nccs1)NC(=O)[C@@H]1CCCN1C(=O)c1ccc(F)cc1)C(=O)NC(C)(C)C(=O)N[C@@H](CC(C)C)C(=O)N[C@@H](CC(C)C)C(=O)NC(C)(C)C(=O)NC(C)(C)C(=O)NCCC(=O)NC1(CN(C)C)CCC1 [Compound 7842, (2S)-N-(1-{[(1S)-1-{[(1S)-1-({1-[(1-{[2-({1-[(dimethylamino)methyl]cyclobutyl}carbamoyl)ethyl]carbamoyl}-1-methylethyl)carbamoyl]-1-methylethyl}carbamoyl)-3-methylbutyl]carbamoyl}-3-methylbutyl]carbamoyl}-1-methylethyl)-2-[(2S)-2-{[(2S)-1-(4-fluorobenzoyl)pyrrolidin-2-yl]formamido}-3-(1,3-thiazol-2-yl)propanamido]-4-methylpentanamide] ({Benzoyl(4-F)}-P[Ala(thiazol-2-yl)]L[Aib]LL[Aib][Aib][βAla]-{NH(1-CH2NMe2-cBu)}) |  |  |  |  |  |  | 32 µg/mL (≈ 27.4 µM)

Source: patent US20240174714A1, “TREATMENT OF SKIN DISORDERS” (priority 2021, published 2024)
